In US20240165196A1, “Beta-Lactamase Inhibitors” (VIB VZW, priority 2021, published 2024):

Experiments:
HEK293 = assay type: cell-based, human
[1] = test system: primary Human Umbilical Vein Endothelial Cells (HUVEC); assay type: cell-based
[2] = test system: uro-pathogenic E. coli strain (UPEC strain blaTEM-1); experiment: MIC of ampicillin on the uro-pathogenic strain; assay type: cell-based; conditions: 32 μg/ml of TEM3.2 or tazobactam
Description: (§1) Vehicle alone (0.9% NaCl) was also administered (IV).
Determination of MIC values using the broth microdilution in the 96-well plate (BD Biosciences, Belgium) according to the EUCAST guideline, which was performed in 96-well polystyrene flat bottom microtiter plates (BD Biosciences). Briefly, a single colony was inoculated into 5 mL Difco™ Mueller Hinton Broth (BD Biosciences Ref 275730) and grown to the end-exponential growth phase in a shaking incubator at 37° C. Cultures were subsequently diluted to an MacFarland (0.5 optical density) then the culture was diluted to reach 10^6 CFU/mL in fresh MHB medium. 50 μl of different concentration of peptides ranging from 128 to 2 μg/mL were serially diluted to the sterile 96-well plate in MHB. 50 μL of the diluted bacteria in MHB were pipetted into 96-well plates to reach the final volume of 100 μL. The bacteria grown with the maximum concentration of carrier and medium were considered as positive and negative controls, respectively. The plates were statically incubated overnight at 37° C. to allow bacterial growth. OD was measured at 590 nm a multipurpose ultraviolet-visible plate reader, and the absorbance of the growth bacteria was measured using absorbance reader. Bacterial growth was also visually inspected and agreed well with the OD reading.

[3] = mouse, in vivo, iv, 5 mg/kg
Description: as §1

[4] = peptide solubility and self-aggregation (DLS, Thioflavin T, electron microscopy, pFTAA)
Excerpt: Three replicates are shown for each condition. […] A single representative image is shown. […] Three replicates are shown for each condition. […] A single representative image is shown. […] A single representative image is shown. […] A single representative image is shown.
A DynaPro DLS plate reader instrument (Wyatt, Santa Barbara, CA, USA) equipped with an 830 nm laser source was used to determine the hydrodynamic radius (RH) of the peptide particles. Two hundred microliters of each sample (at 100 or 10 μM, unless stated otherwise) were placed into a flat-bottom 96-well microclear plate (Greiner, Frickenhausen, Germany). The autocorrelation of scattered light intensity at a 32° angle was recorded for 5 s and averaged over 20 recordings to obtain a single data point. The Wyatt Dynamics v7.1 software was used to calculate the hydrodynamic radius by assuming […] particles. The amyloid-specific dye Thioflavin-T (Th-T, Sigma-Aldrich, CAS number 2390-54-7) was used to study the aggregation state of peptides.

SH-SY5Y = assay type: cell-based, human
E. coli strain UZ_TEM104 = assay type: cell-based

Substance | cytotoxicity (Cell Titer Blue) (HEK293) | cytotoxicity (Cell Titer Blue) [1] | MIC Ampicillin in the presence of additive [2] [µg/mL] | hematologic analysis [3] | solubility by Dynamic Light Scattering ([4]; 50 μM peptide in buffer alone (50 mM Tris pH 8.5, 300 mM NaCl)) | aggregation of the peptide in presence of polyphosphate (ThT binding, electron microscopy) ([4]; 50 μM peptide, buffer with polyP) | cytotoxicity (Cell Titer Blue) (SH-SY5Y) | reduction of the MIC of penicillin G (E. coli strain UZ_TEM104; additive at fixed 50 μg/mL) [fold] | MIC penicillin (E. coli strain UZ_TEM104; in presence of additive at 50 μg/mL) [µg/mL]
Ac-RLTAFLHNRRPRLTAFLRQRR-NH2 [TEM3.2] | not cytotoxic | not cytotoxic | 25 | no major discrepancies to vehicle treated controls | soluble in vitro | amyloid-like aggregation | not cytotoxic | – | –
Ac-RLTAFLHNRRPRLTAFLHNRR-NH2 [TEM3.0] | – | – | – | – | – | – | – | 8 | 200
